In article PMC2628613 (Diabetes, 2009):

Tests used:
PBMCs = type: cell-based, human
purified HLA-A2 = system: purified HLA-A2; parameters: species or system human; details: >50, 20–50, <20% binding at 10^−6 mol/l = high, intermediate, low binders

Substance	Frequencies of recognition, Control subjects (PBMCs)	Frequencies of recognition, Patients (PBMCs)	Responses (stimulation score), Control subjects (PBMCs)	Responses (stimulation score), Patients (PBMCs)	Binding to HLA-A2 (in words) (purified HLA-A2)	Frequencies of recognition, C (PBMCs)	Frequencies of recognition, D (PBMCs)	Frequencies of recognition, L (PBMCs)	Frequencies of recognition, R (PBMCs)	Recognized in % of patients (PBMCs)	Recognized in % of recent-onset patients (PBMCs)	Responses (stimulation score), C (PBMCs)	Responses (stimulation score), L (PBMCs)	Responses (stimulation score), R (PBMCs)	Responses (stimulation score), D (PBMCs)
AAVDLSHFL [Nef 83–91, reference compound]	0/4	0/12	0 (0–5)	3 (0–20)	–	–	–	–	–	–	–	–	–	–	–
EWRFDSRLA [Nef 182–189, reference compound]	0/3	0/8	0 (0–0)	1 (0–35)	–	–	–	–	–	–	–	–	–	–	–
ALWGPDPAAA [15–24]	0/6	8/17	0 (0–0)	12.2 (0–52.8)	high binders	0/4	0/2	1/4	7/13	> 40%	> 50%	0 (0–0)	12.8 (2.4–32.2)	8.7 (0–52.8)	–
RLLPLLALLAL [6–16]	0/12	9/20	0 (0–9.5)	7.3 (0–111.7)	high binders	0/8	0/4	2/4	7/16	> 40%	at least 30%	0 (0–9.5)	12.2 (10–54.5)	5 (0–111.7)	0 (0–0)
RLLPLLALL [6–14]	0/6	5/18	4.7 (3.9–7.2)	30.6 (7.8–144)	high binders	0/4	0/2	1/4	4/14	–	–	4.7 (3.9–7.2)	28.9 (21.1–51.1)	30.6 (7.8–144)	–
ELRSRYWAI [NP 380–388, reference compound]	2/7	7/13	5 (2–131)	8 (0–119)	–	–	–	–	–	–	–	–	–	–	–
Peptide 1–8: human preproinsulin leader sequence peptide, residues 1–8, MALWMRLL	–	–	–	–	no significant binding	–	–	–	–	–	–	–	–	–	–
